Assay results published in patent publication US11661426B2, “Imidazole-containing inhibitors of ALK2 kinase” (BioCryst Pharmaceuticals, Inc., priority 2017, dated 2023).

Each compound was assayed against ALK2 (Homo sapiens (Human), UniProt Q04771) (assay: ALK2 inhibition, LanthaScreen Eu Kinase Binding Assay (ThermoFisher Scientific / Life Technologies)). Details: read-out: Measured Ki (IC50) Value for Compounds: IC50.
Sequence of ALK2 (Q04771 21-509): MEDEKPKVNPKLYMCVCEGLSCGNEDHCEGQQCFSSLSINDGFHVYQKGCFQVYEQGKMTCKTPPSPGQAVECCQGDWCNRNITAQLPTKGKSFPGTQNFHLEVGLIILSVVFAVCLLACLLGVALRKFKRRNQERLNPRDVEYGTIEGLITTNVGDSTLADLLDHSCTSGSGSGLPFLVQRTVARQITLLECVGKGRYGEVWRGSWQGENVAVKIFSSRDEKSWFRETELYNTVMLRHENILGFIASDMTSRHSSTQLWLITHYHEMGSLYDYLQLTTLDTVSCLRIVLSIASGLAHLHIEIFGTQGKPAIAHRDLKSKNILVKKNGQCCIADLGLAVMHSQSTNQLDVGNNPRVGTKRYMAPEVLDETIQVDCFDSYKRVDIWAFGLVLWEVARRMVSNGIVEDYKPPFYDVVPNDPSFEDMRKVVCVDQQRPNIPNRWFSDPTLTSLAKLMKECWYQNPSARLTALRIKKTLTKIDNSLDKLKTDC
Description: Biochemical assays to measure the inhibitory effects of the compounds were performed by ThermoFisher Scientific (Life Technologies). ALK2 inhibition was tested using LanthaScreen™ Eu Kinase Binding Assay screening protocol.
With `COc1cc(-n2cnc(Nc3nc(N4CCC[C@H]4CO)nc4cccc(F)c34)c2)cc(OC)c1OC` [Compound 341a, (S)-(1-(5-fluoro-4-((1-(3,4,5-trimethoxyphenyl)-1H-imidazol-4-yl)amino)quinazolin-2-yl)pyrrolidin-2-yl)methanol] the IC50 was under 100 nM. `COc1cc(-n2cnc(Nc3nc(N4CCC[C@H]4CO)nc4c3COCC4)c2)cc(OC)c1OC` [Compound 342c, (S)-(1-(4-((1-(3,4,5-trimethoxyphenyl)-1H-imidazol-4-yl)amino)-7,8-dihydro-5H-pyrano[4,3-d]pyrimidin-2-yl)pyrrolidin-2-yl)methanol] gave an IC50 of under 100 nM. `COc1cc(-n2cnc(Nc3nc4c(c(N5CCC[C@H]5CO)n3)COCC4)c2)cc(OC)c1OC` [Compound 343b, (S)-(1-(2-((1-(3,4,5-trimethoxyphenyl)-1H-imidazol-4-yl)amino)-7,8-dihydro-5H-pyrano[4,3-d]pyrimidin-4-yl)pyrrolidin-2-yl)methanol] gave an IC50 of under 100 nM. `COc1cc(-n2cnc(Nc3nc(N4CCC[C@H]4CO)nc4cc(Br)ccc34)c2)cc(OC)c1OC` [Compound 344c, (S)-(1-(7-bromo-4-((1-(3,4,5-trimethoxyphenyl)-1H-imidazol-4-yl)amino)quinazolin-2-yl)pyrrolidin-2-yl)methanol] showed an IC50 of under 100 nM. Compound `COc1cc(-n2cnc(Nc3nc(N4CCC[C@H]4C(N)=O)nc4cc(C#N)ccc34)c2)cc(OC)c1OC` [Compound 345c, (S)-1-(7-cyano-4-((1-(3,4,5-trimethoxyphenyl)-1H-imidazol-4-yl)amino)quinazolin-2-yl)pyrrolidine-2-carboxamide] has an IC50 of under 100 nM. Compound `COc1cc(-n2cnc(Nc3cc4ccccc4c(N4CCC[C@H]4CO)n3)c2)cc(OC)c1OC` [Compound 346c, (S)-(1-(3-((1-(3,4,5-trimethoxyphenyl)-1H-imidazol-4-yl)amino)isoquinolin-1-yl)pyrrolidin-2-yl)methanol] has an IC50 of 100 to 1000 nM. `COc1cc(-n2cnc(Nc3nc(N4CCC[C@H]4CO)nc4cc(C#N)ccc34)c2)cc(OC)c1OC` [Compound 347a, (S)-2-(2-(hydroxymethyl)pyrrolidin-1-yl)-4-((1-(3,4,5-trimethoxyphenyl)-1H-imidazol-4-yl)amino)quinazoline-7-carbonitrile] showed an IC50 of under 100 nM. `COc1cc(-n2cnc(Nc3nc(N4CCC[C@@H]4CO)nn4c(CN5CCCCC5)ccc34)c2)cc(OC)c1OC` [Compound 348a, (R)-(1-(7-(piperidin-1-ylmethyl)-4-((1-(3,4,5-trimethoxyphenyl)-1H-imidazol-4-yl)amino)pyrrolo[2,1-f][1,2,4]triazin-2-yl)pyrrolidin-2-yl)methanol] gave an IC50 of under 100 nM. Work on `COc1cc(-n2cnc(Nc3nc(N4CCC[C@@H]4C(N)=O)nn4c(CN5CCCCC5)ccc34)c2)cc(OC)c1OC` [Compound 349a, (R)-1-(7-(piperidin-1-ylmethyl)-4-((1-(3,4,5-trimethoxyphenyl)-1H-imidazol-4-yl)amino)pyrrolo[2,1-f][1,2,4]triazin-2-yl)pyrrolidine-2-carboxamide] yielded an IC50 of under 100 nM. For `COC(=O)c1cc(-n2cnc(Nc3nc(N4CCC[C@H]4C(N)=O)nn4cccc34)c2)cc(OC)c1OC` [Compound 350d, (S)-methyl 5-(4-((2-(2-carbamoylpyrrolidin-1-yl)pyrrolo[2,1-f][1,2,4]triazin-4-yl)amino)-1H-imidazol-1-yl)-2,3-dimethoxybenzoate], the IC50 was under 100 nM. `COc1cc(-n2cnc(Nc3nc(N4CCC[C@H]4C(N)=O)nn4cccc34)c2)cc(C(=O)NC2CCCC2)c1O` [Compound 351d, (S)-1-(4-((1-(3-(cyclopentylcarbamoyl)-4-hydroxy-5-methoxyphenyl)-1H-imidazol-4-yl)amino)pyrrolo[2,1-f][1,2,4]triazin-2-yl)pyrrolidine-2-carboxamide] showed an IC50 of over 1000 nM. Work on `OC[C@@H]1CCCN1c1nc(Nc2nc3ccccc3o2)c2sccc2n1` [Compound 352c, (S)-(1-(4-(benzo[d]oxazol-2-ylamino)thieno[3,2-d]pyrimidin-2-yl)pyrrolidin-2-yl)methanol] yielded an IC50 of over 1000 nM. With `Nc1n[nH]c2ccccc12` [Compound 353a, 1H-indazol-3-amine] the IC50 was over 1000 nM.
